Data from patent US8192962B2, “Processes for detecting toxic substances” (Daikin Industries, Ltd., priority 2001, dated 2012).

Tested on: Unknown protein yeast genes
Test: DNA chip mRNA expression in yeast, unknown protein yeast genes (Table 1)
Assay type: cell-based, Saccharomyces cerevisiae S288C
Experimental: Yeast (Saccharomyces cerevisiae S288C (α SUC2mal mel gap2 CUP1)) were incubated at 25° C. on YPD medium (yeast extract 1%, polypepton 2%, glucose 2%). One of toxic chemical substances was added to the cells at logarithmic growth phase, and the cells were further incubated for two hours. Cells were cultured without any chemical substance in the same condition, and were used as control. Concentrations of the chemical substances were defined to inhibit the growth of the yeast but not lead to death.
After completion of the incubation, the culture was centrifuged to collect the cells. To the cells, sodium acetate buffer (50 mM sodium acetate, 10 mM EDTA, 1% SDS) was added, and the mixture was shaken at 65° C. for five minutes, followed by returning to room temperature, and obtaining the supernatant, of which the procedures were repeated two times. To the supernatant, ½ amount of a solution of phenol/chloroform was added, and the mixture was centrifuged to give a supernatant, which was added with an equal amount of chloroform, and the mixture was centrifuged to give a supernatant. To the supernatant, an equal amount of isopropanol containing 0.3 M sodium acetate was added, and the mixture was allowed to stand at room temperature for 30 minutes, after which the mixture was centrifuged to give a sediment of the whole RNAs. Seventy % ethanol was added to the sediment, and the mixture was again centrifuged to give a sediment, which was then dried and dissolved in water. mRNA was isolated from the whole RNAs as followings. In view of the fact that a poly A chain is attached to the 3′ terminus of mRNA, a polynucleotide having a poly T structure which was immobilized on the surface of latex beads was used to trap the mRNA, and then the mRNA was washed and eluted with spine column (Oligotex-dT30<Super>mRNA Purification Kit, Takara). Reverse transcription of the mRNA was conducted with a reverse transcriptase (Super Script II Reverse Transcriptase; catalogue No. 18064-014, GibcoBRL) using fluorescence-labeled nucleotides to give cDNAs that were introduced with Cy3-dUTP or Cy5-dUTP during the reverse transcription.
The labeled cDNAs were dissolved in TE buffer (10mM Tris-HCl/1 mM EDTA, pH8.0), and the solution was dropped on the DNA chip containing the whole genes of yeast (DNA Chip Research Inc. Japan) so that the cDNAs were hybridized on the DNA chip at 65° C. for over 12 hours. The fluoresces intensity of the DNA chip was read with a scanner, and the ratio relative to the fluorescence intensity resulting from the absence of chemical substance was estimated as the following, which is shown in Tables 1 to 9: […]

Measured: The level of expressed mRNA in the presence of chemical substance/The level of expressed mRNA in the absence of chemical substance

Cl[C@H]1[C@H](Cl)[C@@H](Cl)[C@@H](Cl)[C@H](Cl)[C@H]1Cl [(7), γ-hexachlorocyclohexane]
1.7: yeast gene YGL047W, incubated two hours with chemical substance | yeast gene YGR110W | yeast gene YMR180C, incubated two hours with chemical substance | yeast gene YNL305C, incubated two hours with chemical substance
1.0: yeast gene YDL222C, incubated two hours with chemical substance | yeast gene YER106W, incubated two hours with chemical substance | yeast gene YFL006W, incubated two hours with chemical substance | yeast gene YLR194C, incubated two hours with chemical substance | yeast gene YLR324W, incubated two hours with chemical substance | yeast gene YOL036W, incubated two hours with chemical substance
3.2: yeast gene YDL204W, incubated two hours with chemical substance
4.7: yeast gene YGL121C
3.6: yeast gene YJL161W, incubated two hours with chemical substance
3.3: yeast gene YFL024C
1.6: yeast gene YJL066C, incubated two hours with chemical substance | yeast gene YLR149C, incubated two hours with chemical substance | yeast gene YMR184W, incubated two hours with chemical substance | yeast gene YNL092W, incubated two hours with chemical substance | yeast gene YOL117W, incubated two hours with chemical substance
0.9: yeast gene YJR054W, incubated two hours with chemical substance | yeast gene YNL044W, incubated two hours with chemical substance | yeast gene YOR197W, incubated two hours with chemical substance
4.4: yeast gene YPR151C, incubated two hours with chemical substance
0.8: yeast gene YIL041W, incubated two hours with chemical substance
2.8: yeast gene YOR019W, incubated two hours with chemical substance
1.5: yeast gene YDR511W, incubated two hours with chemical substance | yeast gene YER163C, incubated two hours with chemical substance | yeast gene YFL010C, incubated two hours with chemical substance | yeast gene YGR101W, incubated two hours with chemical substance | yeast gene YMR097C, incubated two hours with chemical substance
3.1: yeast gene YOL083W, incubated two hours with chemical substance
1.2: yeast gene YDR545W, incubated two hours with chemical substance | yeast gene YER158C, incubated two hours with chemical substance | yeast gene YGR221C, incubated two hours with chemical substance | yeast gene YIL023C, incubated two hours with chemical substance | yeast gene YJL152W, incubated two hours with chemical substance | yeast gene YLR350W, incubated two hours with chemical substance | yeast gene YMR067C, incubated two hours with chemical substance | yeast gene YMR095C, incubated two hours with chemical substance | yeast gene YMR107W, incubated two hours with chemical substance | yeast gene YNL234W, incubated two hours with chemical substance | yeast gene YNL281W, incubated two hours with chemical substance | yeast gene YPL206C, incubated two hours with chemical substance | yeast gene YPR023C, incubated two hours with chemical substance
1.9: yeast gene YBL048W | yeast gene YER035W, incubated two hours with chemical substance | yeast gene YER079W, incubated two hours with chemical substance | yeast gene YMR009W, incubated two hours with chemical substance | yeast gene YNL156C, incubated two hours with chemical substance
1.1: yeast gene YEL001C, incubated two hours with chemical substance | yeast gene YFL032W, incubated two hours with chemical substance | yeast gene YHR199C, incubated two hours with chemical substance | yeast gene YKL153W, incubated two hours with chemical substance | yeast gene YLR054C, incubated two hours with chemical substance | yeast gene YLR387C, incubated two hours with chemical substance | yeast gene YLR460C | yeast gene YNL074C, incubated two hours with chemical substance | yeast gene YPL222W, incubated two hours with chemical substance
1.8: yeast gene YDL072C, incubated two hours with chemical substance | yeast gene YIL087C, incubated two hours with chemical substance | yeast gene YMR102C, incubated two hours with chemical substance | yeast gene YNR068C, incubated two hours with chemical substance
0.4: yeast gene YJL082W, incubated two hours with chemical substance
2.1: yeast gene YBL107C | yeast gene YKL195W, incubated two hours with chemical substance
2.4: yeast gene YNL115C, incubated two hours with chemical substance | yeast gene YOL150C | yeast gene YPL196W, incubated two hours with chemical substance
5.6: yeast gene YKL151C, incubated two hours with chemical substance
1.4: yeast gene YER004W, incubated two hours with chemical substance | yeast gene YJL151C, incubated two hours with chemical substance | yeast gene YJL171C, incubated two hours with chemical substance | yeast gene YLR152C, incubated two hours with chemical substance | yeast gene YOL032W, incubated two hours with chemical substance
2.0: yeast gene YDR411C, incubated two hours with chemical substance | yeast gene YGR154C, incubated two hours with chemical substance | yeast gene YMR191W, incubated two hours with chemical substance | yeast gene YMR316W, incubated two hours with chemical substance | yeast gene YOL071W, incubated two hours with chemical substance | yeast gene YOL162W, incubated two hours with chemical substance
3.0: yeast gene YHR138C, incubated two hours with chemical substance
2.7: yeast gene YJL057C, incubated two hours with chemical substance | yeast gene YMR090W
1.3: yeast gene YDR330W, incubated two hours with chemical substance | yeast gene YGL199C, incubated two hours with chemical substance | yeast gene YGR130C, incubated two hours with chemical substance | yeast gene YKR091W, incubated two hours with chemical substance | yeast gene YMR295C, incubated two hours with chemical substance | yeast gene YOL047C, incubated two hours with chemical substance | yeast gene YOL131W, incubated two hours with chemical substance
2.3: yeast gene YER175C, incubated two hours with chemical substance
4.2: yeast gene YPL087W, incubated two hours with chemical substance
0.7: yeast gene YAL053W, incubated two hours with chemical substance | yeast gene YKL086W, incubated two hours with chemical substance | yeast gene YML117W, incubated two hours with chemical substance
2.9: yeast gene YGL037C, incubated two hours with chemical substance | yeast gene YJR008W, incubated two hours with chemical substance
2.5: yeast gene YOL082W, incubated two hours with chemical substance
3.7: yeast gene YGL053W, incubated two hours with chemical substance | yeast gene YKL071W
